According to US20110098304A1, “Small molecule inhibitors of PARP activity” (priority 2009, published 2011):

Molecular target: T1, human PARD-1 (Poly (ADP-Ribose) Polymerase-1) (Homo sapiens, UniProt P09874)
T1 construct: purchased Trevigen Inc., Gaithersburg, Md
Assay: Poly (ADP-Ribose) Polymerase-1 in vitro enzyme assay (Universal Colorimetric Assay Kit, Trevigen)
Assay type: biochemical
Details: letter codes; read-out: extent of inhibition of PARP activity (IC50, micromolar)
Protocol: Poly (ADP-Ribose) Polymerase-1 (PARD-1) In Vitro Enzyme Assay: Compounds were screened for inhibitory activity against human PARD-1 in vitro using the Universal Colorimetric PARD Assay Kit (Trevigen Inc., Gaithersburg, Md.) as directed by the supplier. Compounds are assayed in duplicate in 0.5% DMSO final concentration, negative control is no enzyme, while positive control is DMSO vehicle alone. IC50 determinations are made using Microsoft Excel. For all cell assays, compounds are added to cells in 5% DMSO/PBS for a final concentration of 0.5% DMSO.

T1 sequence (P09874 whole entry): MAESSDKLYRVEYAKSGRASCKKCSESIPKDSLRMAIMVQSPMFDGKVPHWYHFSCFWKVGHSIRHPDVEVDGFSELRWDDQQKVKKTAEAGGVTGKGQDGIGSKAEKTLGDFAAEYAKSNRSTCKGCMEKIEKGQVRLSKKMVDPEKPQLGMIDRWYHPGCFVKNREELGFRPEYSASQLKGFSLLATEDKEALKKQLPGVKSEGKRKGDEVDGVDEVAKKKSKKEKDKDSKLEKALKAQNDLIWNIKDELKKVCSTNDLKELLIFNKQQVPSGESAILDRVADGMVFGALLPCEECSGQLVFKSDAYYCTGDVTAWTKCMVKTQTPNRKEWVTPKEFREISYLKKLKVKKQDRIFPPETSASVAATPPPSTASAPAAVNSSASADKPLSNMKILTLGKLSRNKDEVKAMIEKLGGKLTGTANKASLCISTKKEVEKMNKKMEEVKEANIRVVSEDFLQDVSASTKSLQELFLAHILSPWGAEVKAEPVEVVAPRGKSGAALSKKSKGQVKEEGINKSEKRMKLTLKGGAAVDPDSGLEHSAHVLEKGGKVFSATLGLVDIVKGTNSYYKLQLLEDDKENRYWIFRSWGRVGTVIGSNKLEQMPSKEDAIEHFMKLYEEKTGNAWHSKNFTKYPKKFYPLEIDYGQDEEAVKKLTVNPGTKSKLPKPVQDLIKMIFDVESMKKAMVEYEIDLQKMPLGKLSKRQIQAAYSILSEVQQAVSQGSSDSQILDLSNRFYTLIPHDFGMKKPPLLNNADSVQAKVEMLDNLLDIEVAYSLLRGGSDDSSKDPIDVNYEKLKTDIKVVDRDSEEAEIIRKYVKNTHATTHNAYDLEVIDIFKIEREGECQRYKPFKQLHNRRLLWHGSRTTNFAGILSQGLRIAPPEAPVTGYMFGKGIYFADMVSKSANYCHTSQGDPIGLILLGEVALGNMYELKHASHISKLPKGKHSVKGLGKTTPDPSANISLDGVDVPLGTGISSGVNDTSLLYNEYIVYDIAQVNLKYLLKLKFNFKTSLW

Row | IC50 | Structure (SMILES)
1 | > 5 µM | CCN1CCN(c2ccc(-c3n[nH]c(=O)c4ccccc34)cc2NC(=O)C(C)(C)C)CC1 [N-(2-(4-ethylpiperazin-1-yl)-5-(4-oxo-3,4-dihydrophthalazin-1-yl)phenyl)pivalamide]
2 | 0.1 to 1 µM | Nc1cc(-c2n[nH]c(=O)c3ccccc23)ccc1N1CCN(C(=O)c2ccncc2)CC1 [4-(3-amino-4-(4-isonicotinoylpiperazin-1-yl)phenyl)phthalazin-1(2H)-one]
3 | 0.001 to 0.1 µM | Nc1cc(-c2n[nH]c(=O)c3ccccc23)ccc1N1CCNCC1 [4-(3-amino-4-(piperazin-1-yl)phenyl)phthalazin-1(2H)-one]

The next lines start with the compound.

Row | Structure (SMILES) | IC50
4 | CN1CCN(c2ccc(-c3n[nH]c(=O)c4ccccc34)cc2NC(=O)c2cccc(C#N)c2)CC1 [3-cyano-N-(2-(4-methylpiperazin-1-yl)-5-(4-oxo-3,4-dihydrophthalazin-1-yl)phenyl)benzamide] | 0.1 to 1 µM
5 | Nc1cc(-c2n[nH]c(=O)c3ccccc23)ccc1N1CCN(CC2CC2)CC1 [4-(3-amino-4-(4-(cyclopropylmethyl)piperazin-1-yl)phenyl)phthalazin-1(2H)-one] | 0.001 to 0.1 µM
6 | CN(C)CCN1CCN(c2ccc(-c3n[nH]c(=O)c4ccccc34)cc2N)CC1 [4-(3-amino-4-(4-(2-(dimethylamino)ethyl)piperazin-1-yl)phenyl)phthalazin-1(2H)-one] | 0.1 to 1 µM
7 | Nc1cc(-c2n[nH]c(=O)c3ccccc23)ccc1N1CCN(C2CCCC2)CC1 [4-(3-amino-4-(4-cyclopentylpiperazin-1-yl)phenyl)phthalazin-1(2H)-one] | 0.001 to 0.1 µM
